Experimental data: patent US10213433B2 (AbbVie Inc., priority 2010, dated 2019)

Molecular target: Bcl-2 protein (Homo sapiens (Human), UniProt P10415)
Test: Bcl-2 binding TR-FRET (Time-Resolved Fluorescence-Resonance-Energy-Transfer) assay
Conditions: inhibition constant for binding to Bcl-2 protein
Text: The smaller the Ki value, the greater is the binding affinity.

Sequence of Bcl-2 protein (P10415 whole entry): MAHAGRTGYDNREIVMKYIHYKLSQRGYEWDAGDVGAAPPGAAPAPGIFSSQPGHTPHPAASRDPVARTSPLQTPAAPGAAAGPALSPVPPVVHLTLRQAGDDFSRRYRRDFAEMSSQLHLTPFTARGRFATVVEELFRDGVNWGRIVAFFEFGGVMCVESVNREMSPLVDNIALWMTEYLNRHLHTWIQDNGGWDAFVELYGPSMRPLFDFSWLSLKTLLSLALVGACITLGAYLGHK

Compound	Ki [nM]
CN(C)CCCOc1ccc(CNc2ccc(S(=O)(=O)NC(=O)c3ccc(N4CCN(CC5=C(c6ccc(Cl)cc6)CC(C)(C)CC5)CC4)cc3Oc3cnc4[nH]ccc4c3)cc2[N+](=O)[O-])cc1 [Compound 197, 4-(4-{[2-(4-chlorophenyl)-4,4-dimethylcyclohex-1-en-1-yl]methyl}piperazin-1-yl)-N-{[4-({4-[3-(dimethylamino)propoxy]benzyl}amino)-3-nitrophenyl]sulfonyl}-2-(1H-pyrrolo[2,3-b]pyridin-5-yloxy)benzamide]	< 0.01
CC1(C)CCC(CN2CCN(c3ccc(C(=O)NS(=O)(=O)c4ccc(NCc5ccc(OCCN6CCOCC6)cc5)c([N+](=O)[O-])c4)c(Oc4cnc5[nH]ccc5c4)c3)CC2)=C(c2ccc(Cl)cc2)C1 [Compound 198, 4-(4-{[2-(4-chlorophenyl)-4,4-dimethylcyclohex-1-en-1-yl]methyl}piperazin-1-yl)-N-[(4-{[4-(2-morpholin-4-ylethoxy)benzyl]amino}-3-nitrophenyl)sulfonyl]-2-(1H-pyrrolo[2,3-b]pyridin-5-yloxy)benzamide]	< 0.01
CC1(C)CCC(CN2CCN(c3ccc(C(=O)NS(=O)(=O)c4ccc(NCC56CC7CC(C5)C(O)C(C7)C6)c([N+](=O)[O-])c4)c(Oc4cnc5[nH]ccc5c4)c3)CC2)=C(c2ccc(Cl)cc2)C1 (stereo not drawn) [Compound 199, 4-(4-{[2-(4-chlorophenyl)-4,4-dimethylcyclohex-1-en-1-yl]methyl}piperazin-1-yl)-N-{[4-({[(E)-4-hydroxy-1-adamantyl]methyl}amino)-3-nitrophenyl]sulfonyl}-2-(1H-pyrrolo[2,3-b]pyridin-5-yloxy)benzamide]	< 0.01
CC1(C)CCC(CN2CCN(c3ccc(C(=O)NS(=O)(=O)c4ccc(NCC56CC7CC(C5)C(O)C(C7)C6)c([N+](=O)[O-])c4)c(Oc4cnc5[nH]ccc5c4)c3)CC2)=C(c2ccc(Cl)cc2)C1 (stereo not drawn) [Compound 200, 4-(4-{[2-(4-chlorophenyl)-4,4-dimethylcyclohex-1-en-1-yl]methyl}piperazin-1-yl)-N-{[4-({[(Z)-4-hydroxy-1-adamantyl]methyl}amino)-3-nitrophenyl]sulfonyl}-2-(1H-pyrrolo[2,3-b]pyridin-5-yloxy)benzamide]	< 0.01
CN1CC(Nc2ccc(S(=O)(=O)NC(=O)c3ccc(N4CCN(CC5=C(c6ccc(Cl)cc6)CC(C)(C)CC5)CC4)cc3Oc3cnc4[nH]ccc4c3)cc2[N+](=O)[O-])CC1=O (stereo not drawn) [Compound 202, 4-(4-{[2-(4-chlorophenyl)-4,4-dimethylcyclohex-1-en-1-yl]methyl}piperazin-1-yl)-N-({4-[(1-methyl-5-oxopyrrolidin-3-yl)amino]-3-nitrophenyl}sulfonyl)-2-(1H-pyrrolo[2,3-b]pyridin-5-yloxy)benzamide]	< 0.01
CC1(C)CCC(CN2CCN(c3ccc(C(=O)NS(=O)(=O)c4ccc(OCC5CCCC(=O)C5)c([N+](=O)[O-])c4)c(Oc4cnc5[nH]ccc5c4)c3)CC2)=C(c2ccc(Cl)cc2)C1 (stereo not drawn) [Compound 205, 4-(4-{[2-(4-chlorophenyl)-4,4-dimethylcyclohex-1-en-1-yl]methyl}piperazin-1-yl)-N-({3-nitro-4-[(3-oxocyclohexyl)methoxy]phenyl}sulfonyl)-2-(1H-pyrrolo[2,3-b]pyridin-5-yloxy)benzamide]	< 0.01
CC1(C)CCC(CN2CCN(c3ccc(C(=O)NS(=O)(=O)c4ccc(NC[C@@H]5CCN(C6COC6)C5)c([N+](=O)[O-])c4)c(Oc4cnc5[nH]ccc5c4)c3)CC2)=C(c2ccc(Cl)cc2)C1 [Compound 209, 4-(4-{[2-(4-chlorophenyl)-4,4-dimethylcyclohex-1-en-1-yl]methyl}piperazin-1-yl)-N-{[3-nitro-4-({[(3S)-1-oxetan-3-ylpyrrolidin-3-yl]methyl}amino)phenyl]sulfonyl}-2-(1H-pyrrolo[2,3-b]pyridin-5-yloxy)benzamide]	< 0.01
COCCOCCN1CCOC(CNc2ccc(S(=O)(=O)NC(=O)c3ccc(N4CCN(CC5=C(c6ccc(Cl)cc6)CC(C)(C)CC5)CC4)cc3Oc3cnc4[nH]ccc4c3)cc2[N+](=O)[O-])C1 (stereo not drawn) [Compound 213, 4-(4-{[2-(4-chlorophenyl)-4,4-dimethylcyclohex-1-en-1-yl]methyl}piperazin-1-yl)-N-({4-[({4-[2-(2-methoxyethoxyl)ethyl]morpholin-2-yl}methyl)amino]-3-nitrophenyl}sulfonyl)-2-(1H-pyrrolo[2,3-b]pyridin-5-yloxy)benzamide]	< 0.01
CC1(C)CCC(CN2CCN(c3ccc(C(=O)NS(=O)(=O)c4ccc(NCC5CN(CC#N)CCO5)c([N+](=O)[O-])c4)c(Oc4cnc5[nH]ccc5c4)c3)CC2)=C(c2ccc(Cl)cc2)C1 (stereo not drawn) [Compound 214, 4-(4-{[2-(4-chlorophenyl)-4,4-dimethylcyclohex-1-en-1-yl]methyl}piperazin-1-yl)-N-{[4-({[4-(cyanomethyl)morpholin-2-yl]methyl}amino)-3-nitrophenyl]sulfonyl}-2-(1H-pyrrolo[2,3-b]pyridin-5-yloxy)benzamide]	< 0.01
CN(C)CC(=O)N1CCOC(CNc2ccc(S(=O)(=O)NC(=O)c3ccc(N4CCN(CC5=C(c6ccc(Cl)cc6)CC(C)(C)CC5)CC4)cc3Oc3cnc4[nH]ccc4c3)cc2[N+](=O)[O-])C1 (stereo not drawn) [Compound 215, 4-(4-{[2-(4-chlorophenyl)-4,4-dimethylcyclohex-1-en-1-yl]methyl}piperazin-1-yl)-N-{[4-({[4-(N,N-dimethylglycyl)morpholin-2-yl]methyl}amino)-3-nitrophenyl]sulfonyl}-2-(1H-pyrrolo[2,3-b]pyridin-5-yloxy)benzamide]	< 0.01
CC1(C)CCC(CN2CCN(c3ccc(C(=O)NS(=O)(=O)c4ccc(NCC5CN(CC(=O)O)CCO5)c([N+](=O)[O-])c4)c(Oc4cnc5[nH]ccc5c4)c3)CC2)=C(c2ccc(Cl)cc2)C1 (stereo not drawn) [Compound 216, (2-{[(4-{[4-(4-{[2-(4-chlorophenyl)-4,4-dimethylcyclohex-1-en-1-yl]methyl}piperazin-1-yl)-2-(1H-pyrrolo[2,3-b]pyridin-5-yloxy)benzoyl]sulfamoyl}-2-nitrophenyl)amino]methyl}morpholin-4-yl)acetic acid]	< 0.01
CC1(C)CCC(CN2CCN(c3ccc(C(=O)NS(=O)(=O)c4ccc(NCC5CN(C6COC6)CCO5)c([N+](=O)[O-])c4)c(Oc4cnc5[nH]ccc5c4)c3)CC2)=C(c2ccc(Cl)cc2)C1 (stereo not drawn) [Compound 217, 4-(4-{[2-(4-chlorophenyl)-4,4-dimethylcyclohex-1-en-1-yl]methyl}piperazin-1-yl)-N-{[3-nitro-4-({[4-(oxetan-3-yl)morpholin-2-yl]methyl}amino)phenyl]sulfonyl}-2-(1H-pyrrolo[2,3-b]pyridin-5-yloxy)benzamide]	< 0.01
CC1(C)CCC(CN2CCN(c3ccc(C(=O)NS(=O)(=O)c4ccc(NC5CCN(C(C)(C)C)CC5)c([N+](=O)[O-])c4)c(Oc4cnc5[nH]ccc5c4)c3)CC2)=C(c2ccc(Cl)cc2)C1 [Compound 227, N-({4-[(1-tert-butylpiperidin-4-yl)amino]-3-nitrophenyl}sulfonyl)-4-(4-{[2-(4-chlorophenyl)-4,4-dimethylcyclohex-1-en-1-yl]methyl}piperazin-1-yl)-2-(1H-pyrrolo[2,3-b]pyridin-5-yloxy)benzamide]	< 0.01
CC1(C)CCC(CN2CCN(c3ccc(C(=O)NS(=O)(=O)c4ccc(N[C@@H]5CCOC5)c([N+](=O)[O-])c4)c(Oc4cnc5[nH]ccc5c4)c3)CC2)=C(c2ccc(Cl)cc2)C1 [Compound 238, 4-(4-{[2-(4-chlorophenyl)-4,4-dimethylcyclohex-1-en-1-yl]methyl}piperazin-1-yl)-N-({3-nitro-4-[(3R)-tetrahydrofuran-3-ylamino]phenyl}sulfonyl)-2-(1H-pyrrolo[2,3-b]pyridin-5-yloxy)benzamide]	< 0.01
CC1(C)CCC(CN2CCN(c3ccc(C(=O)NS(=O)(=O)c4ccc(NC5CCN(C(C)(C)C)CC5)c(S(=O)(=O)C(F)(F)F)c4)c(Oc4cnc5[nH]ccc5c4)c3)CC2)=C(c2ccc(Cl)cc2)C1 [Compound 240, N-({4-[(1-tert-butylpiperidin-4-yl)amino]-3-[(trifluoromethyl)sulfonyl]phenyl}sulfonyl)-4-(4-{[2-(4-chlorophenyl)-4,4-dimethylcyclohex-1-en-1-yl]methyl}piperazin-1-yl)-2-(1H-pyrrolo[2,3-b]pyridin-5-yloxy)benzamide]	< 0.01
CC1(C)CCC(CN2CCN(c3ccc(C(=O)NS(=O)(=O)c4ccc(NCC5CN(C6COC6)CCO5)c(S(=O)(=O)C(F)(F)F)c4)c(Oc4cnc5[nH]ccc5c4)c3)CC2)=C(c2ccc(Cl)cc2)C1 (stereo not drawn) [Compound 241, 4-(4-{[2-(4-chlorophenyl)-4,4-dimethylcyclohex-1-en-1-yl]methyl}piperazin-1-yl)-N-({4-({[4-(oxetan-3-yl)morpholin-2-yl]methyl}amino)-3-[(trifluoromethyl)sulfonyl]phenyl}sulfonyl)-2-(1H-pyrrolo[2,3-b]pyridin-5-yloxy)benzamide]	< 0.01
CC1(C)CCC(CN2CCN(c3ccc(C(=O)NS(=O)(=O)c4ccc(NCC5CN(C(CF)CF)CCO5)c([N+](=O)[O-])c4)c(Oc4cnc5[nH]ccc5c4)c3)CC2)=C(c2ccc(Cl)cc2)C1 (stereo not drawn) [Compound 252, 4-(4-{[2-(4-chlorophenyl)-4,4-dimethylcyclohex-1-en-1-yl]methyl}piperazin-1-yl)-N-{[4-({[4-(1,3-difluoropropan-2-yl)morpholin-2-yl]methyl}amino)-3-nitrophenyl]sulfonyl}-2-(1H-pyrrolo[2,3-b]pyridin-5-yloxy)benzamide]	< 0.01
COCCOCCN1CC[C@@H](Nc2ccc(S(=O)(=O)NC(=O)c3ccc(N4CCN(CC5=C(c6ccc(Cl)cc6)CC(C)(C)CC5)CC4)cc3Oc3cnc4[nH]ccc4c3)cc2[N+](=O)[O-])C1 [Compound 254, 4-(4-{[2-(4-chlorophenyl)-4,4-dimethylcyclohex-1-en-1-yl]methyl}piperazin-1-yl)-N-{[4-({(3R)-1-[2-(2-methoxyethoxyl)ethyl]pyrrolidin-3-yl}amino)-3-nitrophenyl]sulfonyl}-2-(1H-pyrrolo[2,3-b]pyridin-5-yloxy)benzamide]	< 0.01
